What was measured:
SHHF rats = experiment: Long-term diet study in SHHF rats (fifteen to twenty-one months of age); type: in vivo, rat
Method: Experiments were performed to determine whether the amount of (18:2)4CL in vivo may be altered with diet and, if so, whether this capability may be used to influence the time course of heart failure in SHHF rats. The two diets studied were a linoleic acid-rich safflower oil diet and a diet supplemented with lard.
Lean male SHHF rats aged eight weeks and fifteen months were used in the studies. […] The progression toward heart failure in SHHF rats shares a wide variety of marked similarities to the progression toward heart failure in humans.
To study the normal timecourse of HF, male SHHF rats were placed on special diets for six months, from fifteen to twenty-one months of age. This timecourse was chosen, because fifteen months is the time when SHHF rats start to progress from hypertension to HF. By twenty-one months most controls should be showing signs of overt HF.

PPARβ = experiment: PPAR binding in LVs of twenty month old SHHF rats on linoleic acid supplement; type: in vivo, rat; conditions: FIG. 13
Text: Peroxisome Proliferator-Activated Receptors: Peroxisome proliferator-activated receptors (PPARs) are a family of nuclear transcription factors comprised of PPARα, PPARγ, and PPARβ (also called PPARδ). […] Alteration in PPAR isoform levels results in CL changes, and it is well established that the natural activator for PPARs are polyunsaturated fatty acids, such as 18:2. […] PPARβ is currently believed to be the most pharmacologically promising of the three isoforms. Linoleic acid supplementation results in an increase in PPARβ binding, FIG. 13.

[1] = test system: fibroblasts from Barth Syndrome patients; conditions: fibroblasts supplemented with 18:2; cited from earlier work
TAB rats = experiment: SC-26196 fed in chow to TAB rats with induced heart failure; type: in vivo, rat
Text: Δ5 Desaturase and Δ6 Desaturase: Δ6 desaturase mRNA increases with heart failure in SHHF rats (FIG. 11). The Δ5 desaturase and Δ6 desaturase inhibitor SC-26196 (Pfizer) was fed to TAB rats in which heart failure was induced three weeks after TAB. The rats were allowed to reach a pre-failure state for a week and then the drug, SC-26196, was given in the chow for two weeks. […] Use of the Δ5 desaturase and Δ6 desaturase inhibitor, SC-26196, improved the heart function of SHHF rats and caused an increase in linoleic acid and a decrease in arachidonic acid levels in the heart.
Rapid induction of HF was studied using eight week old male SHHF rats maintained on a control (Purina 5001) diet since weaning from their mothers. Rapid HF is induced by transaortic banding (TAB) accompanied by a high salt diet for four weeks (TAB/HS). Rats are used for experiments four weeks following TAB/HS treatment.

SMILES | left ventricular dimension (SHHF rats; 18:2 supplementation) | systolic function (SHHF rats; 18:2 supplementation) | survivability / survival of SHHF rats (SHHF rats; compared to lard supplemented or standard chow diets, FIG. 7) | PPARβ binding (PPARβ) | amount of (18:2)4CL [1] | arachidonic acid levels in the heart (TAB rats; SHHF rats) | linoleic acid levels in the heart (TAB rats; SHHF rats) | survivability of SHHF rats (TAB rats; given in the chow) | production of arachidonic acid from linoleic acid (TAB rats; given in the chow for two weeks) | cardiac function (fractional shortening) (TAB rats; given in the chow for two weeks, FIG. 12A) | level of (18:2)4CL (TAB rats; given in the chow for two weeks, FIG. 12B)
CCCCC/C=C\C/C=C\CCCCCCCC(=O)O [Linoleic acid, linoleic acid] | Trends for improvement | Trends for improvement | significant increase | increase | increased |  |  |  |  |  | 
N#CC(CCCN1CCN(/N=C/c2cccnc2)CC1)(c1ccccc1)c1ccccc1 [SC-26196] |  |  |  |  |  | decrease | increase | improved | effectively blocked | improved | increased

From patent US20080318909A1, “Use Of Linoleic Compounds Against Heart Failure” (priority 2007, published 2008)
